Test results: patent US6596863B2, “Medical composition containing nitroetheneamine Derivative or salt there of as active constituent” (Ishihara Sangyo Kaisha, Ltd., priority 1998, dated 2003)
Like-named read-outs stand apart in the source and are kept apart here. Marks after values point to notes of the source that are not given here.

Tests used:
[1] = test system: Meth A/AD cells (mouse fibrosarcoma); format: in vivo; set-up: Tumor volume (Day 22) Average ± standard deviation / Tumor growth inhibition ratio (%) / Tumor volume (Day 24) Average ± standard deviation: dose or concentration left out as unconfirmed; settings: for inhibition ratio of tumor growth of Meth A/AD: intraperitoneal administration, total of 10 times, male BALB/c mouse, tumor volume vs vehicle control
Method: Meth A mouse fibrosarcoma cells intraperitoneally subcultured in mouse (supplied from Sasaki Institute) were cultured at 39° C. for 10 days in 5% CO2 (using 10% fetal bovine serum-containing RPMI culture medium (manufactured by Flow Laboratories)) and then inoculated subcutaneously to BALB/c mouse. The tumor grown for 30 days, was taken out and passed through a metal mesh to obtain single cells, which were again returned and continuously cultured in vitro (37° C.). […] On the other hand, the Meth A/AD strain always produces and secretes MMP-2 in the supernatant in in vitro culture, but when TNF-α (50 ng/ml) was added in the culture solution, it produced MMP-9 remarkably.
With reference to the method by Keneda et al (Cancer Research, Vol. 58, 290-295, 1998), the inhibitory effect on tumor growth were evaluated. Namely, 1×10^6 Meth A/AD cells cultured in vitro (suspended in 0.05 ml of a Hanks equilibrium salt solution) were intradermaly transplanted to the dosal skin of a male BALB/c AnNCrj mouse of 5 weeks old (purchased from Charles River Japan, Inc.) (Day 0). […] Compound No. 107 was suspended in a 1% Tween 80 physiological sodium chloride aqueous solution, and Compound No. 164 was dissolved in 100 mM Tris-HCl (pH 8.5)/150 mM NaCl, for administration. To the vehicle control group, the respective solvents containing no test materials were administered in the same manner. The measurement of the body weight and the observation of the general findings were carried out everyday up to Day 22 or 24, and the tumor diameters (the long diameter and the short diameter) were measured by a slide gauge every one day, and the difference in the tumor volume between the vehicle control group and the drug-treated group was evaluated. The tumor volume was calculated in accordance with the calculation formula of [(long diameter)×(short diameter)^2×½].

[2] = test system: CPAE cells (bovine pulmonary-derived vascular endothelical cells); assay: Inhibitory action against capillary-like tube formation of vascular endothelial cells, three dimensional collagen gel culture; format: cell-based; settings: for Number of networks Average ± SD: n = 5, Day 4
Method: With reference to the method disclosed in a literature (Hayashi, J. N. et al, Virchows arch. (B), Vol. 60,245-252, 1991, Lee, D. Y. et al, Life Science, Vol. 60, 127-134, 1997), evaluation was carried out by the following method.
7 Parts by volume of type I-a collagen (manufactured by Nitta Gelatin K. K.) and 2 parts by volume of Dulbecco's Modified Eagle Medium (concentration: 5 times, containing no NaHCO3; No. D-5648, manufactured by Sigma Co.) were thoroughly mixed under cooling with ice, and then one part by volume of a collagen gel-reconstructing buffer solution (2.2% NaHCO3/0.2M HEPES/0.05N NaOH) was added thereto. To withdraw bubbles, centrifugal separation and supersonic treatment were carried out, and then 400 μl of the gel was introduced into 24 well multi-well plate (Code 3047, manufactured by Falcon Co.) and incubated at 37° C. for about 10 minutes for gelation.
On the gelled collagen, CPAE cells (bovine pulmonary-derived vascular endothelical cells; ATCC CCL209, purchased from Dainippon Seiyaku K. K.) was inoculated in a concentration of 4×10^4 cells/400 μl/well (Day 0). Thereafter the cells were cultured overnight at 37° C. in a 5% CO2 incubator. Next day (Day 1), after confirming that the cells were normally proliferating, the culture solution was removed by aspiration, and a fresh collagen gel (prepared in the same manner as the above layer) was overlaid in an amount of 200 μl/well and gelled.
On the gel, the test materials dissolved in 10% fetal bovine serum-containing Dulbecco's Modified Eagle Medium (No. D-5648, manufactured by Sigma Co.) (prepared to have a concentration four times the final concentration) was added in an amount of 200 μl, and culturing was continued under the same conditions. Upon expiration of three days from stratification (Day 4), capillary-like tube formation was observed by a microscope, and an optional field of view was photographed with 100 magnifications, whereupon the number of capillary-like structures formed (the number of networks) were visually counted with reference to the method disclosed in a literature by Yeong, H. et al (Cancer Research, Vol. 56, 2428-2433, 1996). For each test sample, 2 well treatment was carried out, and a total of five fields of view were photographed for evaluation.

[3] = molecular target: T1, human MMP-3 (Homo sapiens, UniProt P08254); assay: Enzyme inhibition activity against MMP-3 (stromelysin-1), fluorescent peptide substrate NFF-3; format: biochemical; settings: human MMP-3, substrate NFF-3, 37° C. for 2 hours
T1 construct: purchased Kabushiki Kaisha Yagai Chuo Kenkyusho YU-26003
T1 sequence (P08254 100-477): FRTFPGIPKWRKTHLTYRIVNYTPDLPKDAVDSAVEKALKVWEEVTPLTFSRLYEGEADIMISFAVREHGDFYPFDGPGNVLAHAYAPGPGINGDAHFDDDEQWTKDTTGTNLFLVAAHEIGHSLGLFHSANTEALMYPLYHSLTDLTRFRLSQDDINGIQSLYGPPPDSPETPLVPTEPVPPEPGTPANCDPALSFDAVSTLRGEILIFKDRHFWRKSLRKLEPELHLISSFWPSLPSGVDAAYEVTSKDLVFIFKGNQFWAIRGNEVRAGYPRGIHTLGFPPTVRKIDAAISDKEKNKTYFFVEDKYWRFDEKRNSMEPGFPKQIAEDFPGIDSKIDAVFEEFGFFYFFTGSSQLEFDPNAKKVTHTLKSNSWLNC
Method: The inhibition activity against human MMP-3 was measured using a fluorescent peptide substrate MOCAc-Arg-Pro-Lys-Pro-Val-Glu-Nva-Trp—Arg-Lys(Dnp)-NH2[NFF-3, manufactured by Peptide Institute, Inc. (No. 3168-v)] with reference to the method disclosed in a literature (Knight C. G. et al, FEBS Letters, Vol. 296, 263-266, 1992, Nagase H. et al, Journal of Biological Chemistry, Vol. 269, 20952-20957, 1994). Namely, into each well of a Fluoro Nunc plate (96C) white (No. 437842, manufactured by Nunc Co.), 180 μl of a MMP-3 solution (0.0125 unit/ml; No. YU-26003, manufactured by Kabushiki Kaisha Yagai Chuo Kenkyusho, purity: at least 99%), 10 μl of a test materials (the compound of the present invention) dissolved in DMSO and 10 μl of a peptide substrate […] (final concentration: 10 μM) were added and maintained at 37° C. for 2 hours in a dark place. Dilution of the enzyme was carried out by using 50 mM of Tris-HCl (pH 7.5) comprising 0.1M of NaCl, 10 mM of CaCl2, 0.05% Brij 35 and 0.02% of NaN3.
For the MMP-3 enzymatic activity, the amount of the decomposition product after the reaction was quantitatively analyzed as the change in the relative fluorescence intensity at a fluorescence wavelength of 400 nm with an excitation wavelength of 326 nm (using a variable fluorescence plate reader (variable wavelength type) Spectron FL-2575, manufactured by Towa Kagaku K. K.), and the inhibition activity of the test materials against the enzymatic activity was calculated by comparing the relative fluorescence intensities of the inhibitor added group and the non-added group after completion of the reaction.

Row | SMILES | inhibition ratio of tumor growth of Meth A/AD ([1]; 30 mg/kg) [%] | Tumor growth inhibition ratio (%) ([1]; intraperitoneal, Day 24) | Tumor volume (Day 24) Average ± standard deviation ([1]; intraperitoneal, Day 24, vehicle control 2045 ± 987) | Inhibition ratio (%) against capillary-like tube formation ([2]; 0.1 μM) | Number of networks Average ± SD ([2]; 0.1 μM) | Inhibition ratio (%) against capillary-like tube formation ([2]; 1 μM) | Number of networks Average ± SD ([2]; 1 μM) | Inhibition ratio (%) against capillary-like tube formation ([2]; 10 μM) | Number of networks Average ± SD ([2]; 10 μM) | Inhibition ratio (%) against capillary-like tube formation ([2]; 100 μM) | Number of networks Average ± SD ([2]; 100 μM) | IC50 [3] [µM] | inhibition ratio of tumor growth of Meth A/AD ([1]; 100 mg/kg) [%] | Tumor growth inhibition ratio (%) ([1]; intraperitoneal, Day 22) | Tumor volume (Day 22) Average ± standard deviation ([1]; intraperitoneal, Day 22, vehicle control 1058 ± 556)
1 | CCOCCOc1cc(C(F)(F)F)cc(NNC(=C[N+](=O)[O-])NS(C)(=O)=O)n1 [Compound No. 164, N-(1-(6-(2-ethoxyethoxy)-4-trifluoromethyl-2-pyridyl)hydrazino-2-nitroethenyl)methanesulfonamide] | 49.8 | 49.8* % | 1027 ± 907* mm^3 | 23% | 23.6 ± 3.2 | 44* % | 17.2 ± 4.1 | 44* % | 17.2 ± 6.0 | 66* % | 10.4 ± 5.7 | 17.8 | – | – | –
2 | CCOCCOc1cc(C(F)(F)F)cc(NNC(=C[N+](=O)[O-])NC)n1 [Compound No. 107] | – | – | – | 35* % | 20.0 ± 5.7 | 41* % | 18.2 ± 1.6 | 62* % | 11.8 ± 5.0 | 93* % | 2.0 ± 2.8 | 22.3 | 63.5 | 63.5* % | 386 ± 275* mm^3
3 | CS(=O)(=O)NC(=C[N+](=O)[O-])NNc1cc(C(F)(F)F)cc(Cl)n1 [Compound No. 157, N-(1-(6-chloro-4-trifluoromethyl-2-pyridyl)hydrazino-2-nitroethenyl)methanesulfonamide] | – | – | – | – | – | – | – | – | – | – | – | 24.2 | – | – | –
